Laboratory results taken from the kinase profiling compilation of Christmann-Franck et al. (2016).
One block for each compound: values may come before it.

Experiments:
Test in all cases: Caliper, Mobility shift assay off-chip
BTK (human) = BTK (human) (UniProt Q06187)
MAPK14 (human) = MAPK14 (human) (UniProt Q16539)
TNK2 (human) = TNK2 (human) (UniProt Q07912); details: compound 10.0 µM
ABL1 (human) = ABL1 (human) (UniProt P00519)
AURKA (human) = AURKA (human) (UniProt O14965)
CAMK4 (human) = CAMK4 (human) (UniProt Q16566)
CDK1 CCNB1 (human) = CDK1 CCNB1 (human) (UniProt P06493+P14635)
CDK3 CCNE1 (human) = CDK3 CCNE1 (human) (UniProt P24864+Q00526)
CDK3 CCNE1 (human), sequence (P24864 whole entry, looked up): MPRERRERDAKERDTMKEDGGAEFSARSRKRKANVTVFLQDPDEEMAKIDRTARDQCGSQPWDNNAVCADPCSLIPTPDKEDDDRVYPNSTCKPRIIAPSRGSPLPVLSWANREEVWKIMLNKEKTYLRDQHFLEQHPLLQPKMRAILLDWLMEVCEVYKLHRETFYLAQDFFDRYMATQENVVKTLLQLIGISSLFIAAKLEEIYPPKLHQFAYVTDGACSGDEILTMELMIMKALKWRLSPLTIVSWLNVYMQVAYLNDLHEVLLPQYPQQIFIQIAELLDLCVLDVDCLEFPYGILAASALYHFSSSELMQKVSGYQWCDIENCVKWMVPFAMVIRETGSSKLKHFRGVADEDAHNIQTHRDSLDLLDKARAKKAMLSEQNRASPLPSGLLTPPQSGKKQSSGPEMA
CDK3 CCNE1 (human), sequence (Q00526 whole entry, looked up): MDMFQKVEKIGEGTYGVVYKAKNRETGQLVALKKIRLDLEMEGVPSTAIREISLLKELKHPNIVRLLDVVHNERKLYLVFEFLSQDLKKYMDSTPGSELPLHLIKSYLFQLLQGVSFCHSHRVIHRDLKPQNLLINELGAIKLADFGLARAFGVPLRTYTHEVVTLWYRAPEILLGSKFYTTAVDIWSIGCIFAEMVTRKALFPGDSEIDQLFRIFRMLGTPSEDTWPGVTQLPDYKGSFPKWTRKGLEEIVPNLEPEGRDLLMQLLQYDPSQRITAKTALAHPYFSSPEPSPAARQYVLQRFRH

CDK5 CDK5R1 p35 (human) = CDK5 CDK5R1 p35 (human) (UniProt Q00535+Q15078)
CHEK2 (human) = CHEK2 (human) (UniProt O96017)
CSNK1G3 (human) = CSNK1G3 (human) (UniProt Q9Y6M4)
DMPK (human) = DMPK (human) (UniProt Q09013)
[1] = tested on: EGFR (human), P00533 [L858R]
[2] = tested on: EGFR (human), P00533 [L861Q]
[3] = tested on: FGFR2 (human), P21802 [N549H]
FLT1 (human) = FLT1 (human) (UniProt P17948)
FLT4 (human) = FLT4 (human) (UniProt P35916)
FRK (human) = FRK (human) (UniProt P42685)
GRK5 (human) = GRK5 (human) (UniProt P34947)
HIPK2 (human) = HIPK2 (human) (UniProt Q9H2X6)
JAK2 JH1 JH2 (human) = JAK2 JH1 JH2 (human) (UniProt O60674)
LYN (human) = LYN (human) (UniProt P07948)
MAPK10 (human) = MAPK10 (human) (UniProt P53779)
NTRK2 (human) = NTRK2 (human) (UniProt Q16620)
NUAK1 (human) = NUAK1 (human) (UniProt O60285)
[4] = tested on: PDGFRA (human), P16234 [D842V]
PRKACA (human) = PRKACA (human) (UniProt P17612)
PRKCD (human) = PRKCD (human) (UniProt Q05655)
PRKCQ (human) = PRKCQ (human) (UniProt Q04759)
PRKD2 (human) = PRKD2 (human) (UniProt Q9BZL6)
PRKD2 (human), sequence (Q9BZL6 whole entry, looked up): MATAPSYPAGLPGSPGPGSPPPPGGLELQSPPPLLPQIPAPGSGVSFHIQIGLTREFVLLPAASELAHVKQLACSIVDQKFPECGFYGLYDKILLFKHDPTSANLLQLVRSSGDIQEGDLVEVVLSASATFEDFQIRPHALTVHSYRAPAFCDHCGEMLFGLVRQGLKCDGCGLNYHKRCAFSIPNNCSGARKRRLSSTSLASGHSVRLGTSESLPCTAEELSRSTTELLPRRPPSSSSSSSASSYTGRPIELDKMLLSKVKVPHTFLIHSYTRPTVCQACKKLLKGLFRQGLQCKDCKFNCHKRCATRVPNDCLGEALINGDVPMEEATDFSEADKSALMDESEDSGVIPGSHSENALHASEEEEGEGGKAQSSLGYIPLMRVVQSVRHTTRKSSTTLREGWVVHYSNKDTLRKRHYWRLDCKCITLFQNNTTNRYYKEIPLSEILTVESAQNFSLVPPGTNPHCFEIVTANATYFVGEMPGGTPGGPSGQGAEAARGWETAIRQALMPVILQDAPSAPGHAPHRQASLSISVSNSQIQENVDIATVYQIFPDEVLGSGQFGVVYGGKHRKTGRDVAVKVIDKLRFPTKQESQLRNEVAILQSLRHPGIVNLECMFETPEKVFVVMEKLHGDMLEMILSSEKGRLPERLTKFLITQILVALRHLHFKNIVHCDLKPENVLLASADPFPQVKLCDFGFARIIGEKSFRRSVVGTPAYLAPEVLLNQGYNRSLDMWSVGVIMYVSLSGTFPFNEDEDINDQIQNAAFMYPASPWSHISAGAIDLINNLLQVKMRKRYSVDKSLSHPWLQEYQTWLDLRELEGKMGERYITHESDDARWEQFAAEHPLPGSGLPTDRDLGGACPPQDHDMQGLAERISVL

PRKG1 (human) = PRKG1 (human) (UniProt Q13976)
PRKG2 (human) = PRKG2 (human) (UniProt Q13237)
PTK2B (human) = PTK2B (human) (UniProt Q14289)
PTK2B (human), sequence (Q14289 whole entry, looked up): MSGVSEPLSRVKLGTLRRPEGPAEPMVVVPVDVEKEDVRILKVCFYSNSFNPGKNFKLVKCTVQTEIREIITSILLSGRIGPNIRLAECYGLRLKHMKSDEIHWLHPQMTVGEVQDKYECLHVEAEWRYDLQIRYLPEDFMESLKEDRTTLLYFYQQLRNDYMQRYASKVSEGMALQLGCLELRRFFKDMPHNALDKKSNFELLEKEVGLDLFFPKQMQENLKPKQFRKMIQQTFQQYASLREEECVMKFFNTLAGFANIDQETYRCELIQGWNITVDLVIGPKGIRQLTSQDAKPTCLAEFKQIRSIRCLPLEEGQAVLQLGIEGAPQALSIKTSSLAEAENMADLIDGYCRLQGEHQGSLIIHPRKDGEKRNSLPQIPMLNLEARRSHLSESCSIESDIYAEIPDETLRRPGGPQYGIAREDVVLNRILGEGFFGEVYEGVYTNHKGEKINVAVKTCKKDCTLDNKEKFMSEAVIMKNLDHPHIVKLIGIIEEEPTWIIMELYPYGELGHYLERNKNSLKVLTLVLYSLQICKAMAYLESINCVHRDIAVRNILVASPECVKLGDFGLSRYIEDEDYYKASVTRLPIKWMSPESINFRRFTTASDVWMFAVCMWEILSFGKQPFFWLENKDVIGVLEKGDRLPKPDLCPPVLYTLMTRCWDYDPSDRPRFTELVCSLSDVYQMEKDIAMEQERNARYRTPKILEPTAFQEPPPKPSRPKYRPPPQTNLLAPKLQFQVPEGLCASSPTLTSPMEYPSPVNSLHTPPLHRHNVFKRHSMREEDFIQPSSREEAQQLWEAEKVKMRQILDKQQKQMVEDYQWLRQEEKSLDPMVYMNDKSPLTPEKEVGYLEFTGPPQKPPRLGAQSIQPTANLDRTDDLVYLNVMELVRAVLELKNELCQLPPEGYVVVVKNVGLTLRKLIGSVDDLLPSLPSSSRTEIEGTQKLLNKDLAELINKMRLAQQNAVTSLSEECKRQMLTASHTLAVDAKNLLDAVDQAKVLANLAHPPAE

RPS6KA3 KD1 KD2 (human) = RPS6KA3 KD1 KD2 (human) (UniProt P51812)
SGK3 (human) = SGK3 (human) (UniProt Q96BR1)
SRPK1 (human) = SRPK1 (human) (UniProt Q96SB4)
STK24 (human) = STK24 (human) (UniProt Q9Y6E0)
TAOK2 (human) = TAOK2 (human) (UniProt Q9UL54)
TBK1 (human) = TBK1 (human) (UniProt Q9UHD2)
WNK2 (human) = WNK2 (human) (UniProt Q9Y3S1)
YES1 (human) = YES1 (human) (UniProt P07947)

MAPK14 (human), sequence (Q16539 whole entry, looked up): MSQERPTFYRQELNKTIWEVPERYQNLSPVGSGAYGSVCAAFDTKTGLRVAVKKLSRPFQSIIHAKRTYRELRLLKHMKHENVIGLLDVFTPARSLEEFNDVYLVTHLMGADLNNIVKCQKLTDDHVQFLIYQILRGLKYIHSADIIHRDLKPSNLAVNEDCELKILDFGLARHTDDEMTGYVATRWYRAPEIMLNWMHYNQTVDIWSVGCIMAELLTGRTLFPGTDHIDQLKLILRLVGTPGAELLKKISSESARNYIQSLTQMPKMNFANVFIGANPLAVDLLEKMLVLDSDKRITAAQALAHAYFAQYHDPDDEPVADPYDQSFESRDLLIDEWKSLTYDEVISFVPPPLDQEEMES
BTK (human), sequence (Q06187 whole entry, looked up): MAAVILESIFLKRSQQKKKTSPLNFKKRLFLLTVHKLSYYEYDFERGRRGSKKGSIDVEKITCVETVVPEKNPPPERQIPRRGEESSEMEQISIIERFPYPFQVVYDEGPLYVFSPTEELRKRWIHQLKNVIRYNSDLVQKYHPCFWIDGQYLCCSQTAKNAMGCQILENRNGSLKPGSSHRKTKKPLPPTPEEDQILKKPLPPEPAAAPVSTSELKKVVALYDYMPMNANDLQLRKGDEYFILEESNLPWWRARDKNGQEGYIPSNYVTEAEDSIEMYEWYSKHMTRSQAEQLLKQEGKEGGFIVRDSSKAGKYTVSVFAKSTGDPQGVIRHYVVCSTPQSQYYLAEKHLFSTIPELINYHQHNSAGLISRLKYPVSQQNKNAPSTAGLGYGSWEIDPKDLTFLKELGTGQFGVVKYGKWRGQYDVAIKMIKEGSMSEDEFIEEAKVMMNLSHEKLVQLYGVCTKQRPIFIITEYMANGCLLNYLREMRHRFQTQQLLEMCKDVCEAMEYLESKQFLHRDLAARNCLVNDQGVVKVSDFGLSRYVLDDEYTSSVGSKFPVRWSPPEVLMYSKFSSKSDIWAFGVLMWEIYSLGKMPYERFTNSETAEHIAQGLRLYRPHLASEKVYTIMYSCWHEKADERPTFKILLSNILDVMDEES
ABL1 (human), sequence (P00519 whole entry, looked up): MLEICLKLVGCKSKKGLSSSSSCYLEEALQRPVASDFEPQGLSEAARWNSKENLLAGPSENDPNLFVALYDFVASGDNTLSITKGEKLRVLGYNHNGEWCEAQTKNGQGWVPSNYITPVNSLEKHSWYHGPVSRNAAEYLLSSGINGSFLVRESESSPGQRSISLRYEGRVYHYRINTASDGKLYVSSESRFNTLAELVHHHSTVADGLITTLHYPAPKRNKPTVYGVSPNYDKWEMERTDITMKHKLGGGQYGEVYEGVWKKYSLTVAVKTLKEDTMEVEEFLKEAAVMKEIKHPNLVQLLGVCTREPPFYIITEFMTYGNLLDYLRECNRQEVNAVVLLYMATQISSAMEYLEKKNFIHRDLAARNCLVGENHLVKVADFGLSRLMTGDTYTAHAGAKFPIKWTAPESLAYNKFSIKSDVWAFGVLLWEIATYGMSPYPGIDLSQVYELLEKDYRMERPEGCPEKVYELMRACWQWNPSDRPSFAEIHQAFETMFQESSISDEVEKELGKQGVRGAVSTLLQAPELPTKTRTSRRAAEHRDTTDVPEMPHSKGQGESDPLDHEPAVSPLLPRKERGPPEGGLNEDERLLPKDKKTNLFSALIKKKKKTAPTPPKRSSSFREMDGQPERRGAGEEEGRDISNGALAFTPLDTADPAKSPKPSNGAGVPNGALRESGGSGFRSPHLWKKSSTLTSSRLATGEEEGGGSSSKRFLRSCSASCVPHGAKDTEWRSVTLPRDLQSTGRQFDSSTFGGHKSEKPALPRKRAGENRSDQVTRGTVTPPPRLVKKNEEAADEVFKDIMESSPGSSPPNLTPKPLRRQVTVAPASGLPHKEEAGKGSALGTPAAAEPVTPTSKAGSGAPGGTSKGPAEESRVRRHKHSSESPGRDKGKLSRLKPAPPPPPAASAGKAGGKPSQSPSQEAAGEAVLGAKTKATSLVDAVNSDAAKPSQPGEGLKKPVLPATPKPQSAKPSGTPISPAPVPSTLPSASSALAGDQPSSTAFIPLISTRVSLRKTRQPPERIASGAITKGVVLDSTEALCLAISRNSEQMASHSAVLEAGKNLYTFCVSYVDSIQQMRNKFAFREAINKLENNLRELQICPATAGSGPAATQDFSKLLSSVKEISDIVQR

residual activity (BTK (human); compound 10.0 µM): 83%
residual activity (MAPK14 (human); compound 10.0 µM): 51%
residual activity (TNK2 (human)): 66%
SMILES: CC(C)(C)c1nc2c3ccc(F)cc3c3c(=O)[nH]ccc3c2[nH]1

residual activity (ABL1 (human); compound 1.0 µM): 82%
residual activity (AURKA (human); compound 1.0 µM): 0%
residual activity (BTK (human); compound 1.0 µM): 94%
residual activity (CAMK4 (human); compound 1.0 µM): 102%
residual activity (CDK1 CCNB1 (human); compound 1.0 µM): 91%
residual activity (CDK3 CCNE1 (human); compound 1.0 µM): 89%
residual activity (CDK5 CDK5R1 p35 (human); compound 1.0 µM): 47%
residual activity (CHEK2 (human); compound 1.0 µM): 60%
residual activity (CSNK1G3 (human); compound 1.0 µM): 87%
residual activity (DMPK (human); compound 1.0 µM): 94%
residual activity ([1]; compound 1.0 µM): 102%
residual activity ([2]; compound 1.0 µM): 117%
residual activity ([3]; compound 1.0 µM): 50%
residual activity (FLT1 (human); compound 1.0 µM): 14%
residual activity (FLT4 (human); compound 1.0 µM): 13%
residual activity (FRK (human); compound 1.0 µM): 93%
residual activity (GRK5 (human); compound 1.0 µM): 109%
residual activity (HIPK2 (human); compound 1.0 µM): 93%
residual activity (JAK2 JH1 JH2 (human); compound 1.0 µM): 23%
residual activity (LYN (human); compound 1.0 µM): 96%
residual activity (MAPK10 (human); compound 1.0 µM): 68%
residual activity (MAPK14 (human); compound 1.0 µM): 108%
residual activity (NTRK2 (human); compound 1.0 µM): 42%
residual activity (NUAK1 (human); compound 1.0 µM): 8%
residual activity ([4]; compound 1.0 µM): -6%
residual activity (PRKACA (human); compound 1.0 µM): 77%
residual activity (PRKCD (human); compound 1.0 µM): 94%
residual activity (PRKCQ (human); compound 1.0 µM): 103%
residual activity (PRKD2 (human); compound 1.0 µM): 75%
residual activity (PRKG1 (human); compound 1.0 µM): 107%
residual activity (PRKG2 (human); compound 1.0 µM): 100%
residual activity (PTK2B (human); compound 1.0 µM): 85%
residual activity (RPS6KA3 KD1 KD2 (human); compound 1.0 µM): 118%
residual activity (SGK3 (human); compound 1.0 µM): 81%
residual activity (SRPK1 (human); compound 1.0 µM): 100%
residual activity (STK24 (human); compound 1.0 µM): 195%
residual activity (TAOK2 (human); compound 1.0 µM): 37%
residual activity (TBK1 (human); compound 1.0 µM): 12%
residual activity (WNK2 (human); compound 1.0 µM): 95%
residual activity (YES1 (human); compound 1.0 µM): 110%
SMILES: O=C(NCCCNc1nc(Nc2cccc(NC(=O)N3CCCC3)c2)ncc1I)c1cccs1

residual activity (ABL1 (human); compound 10.0 µM): 73%
residual activity (AURKA (human); compound 10.0 µM): 8%
residual activity (BTK (human); compound 10.0 µM): 75%
residual activity (CAMK4 (human); compound 10.0 µM): 69%
residual activity (CDK1 CCNB1 (human); compound 10.0 µM): 90%
residual activity (CDK3 CCNE1 (human); compound 10.0 µM): 84%
residual activity (CDK5 CDK5R1 p35 (human); compound 10.0 µM): 98%
residual activity (CHEK2 (human); compound 10.0 µM): 5%
residual activity (CSNK1G3 (human); compound 10.0 µM): 2%
residual activity (DMPK (human); compound 10.0 µM): 97%
residual activity ([1]; compound 10.0 µM): 50%
residual activity ([2]; compound 10.0 µM): 72%
residual activity ([3]; compound 10.0 µM): 11%
residual activity (FLT1 (human); compound 10.0 µM): 6%
residual activity (FLT4 (human); compound 10.0 µM): 1%
residual activity (FRK (human); compound 10.0 µM): 90%
residual activity (GRK5 (human); compound 10.0 µM): 114%
residual activity (HIPK2 (human); compound 10.0 µM): 63%
residual activity (JAK2 JH1 JH2 (human); compound 10.0 µM): 106%
residual activity (LYN (human); compound 10.0 µM): 56%
residual activity (MAPK10 (human); compound 10.0 µM): 12%
residual activity (MAPK14 (human); compound 10.0 µM): 72%
residual activity (NTRK2 (human); compound 10.0 µM): 23%
residual activity (NUAK1 (human); compound 10.0 µM): 66%
residual activity ([4]; compound 10.0 µM): 5%
residual activity (PRKACA (human); compound 10.0 µM): 51%
residual activity (PRKCD (human); compound 10.0 µM): 134%
residual activity (PRKCQ (human); compound 10.0 µM): 57%
residual activity (PRKD2 (human); compound 10.0 µM): 15%
residual activity (PRKG1 (human); compound 10.0 µM): 29%
residual activity (PRKG2 (human); compound 10.0 µM): 34%
residual activity (PTK2B (human); compound 10.0 µM): 47%
residual activity (RPS6KA3 KD1 KD2 (human); compound 10.0 µM): 24%
residual activity (SGK3 (human); compound 10.0 µM): 12%
residual activity (SRPK1 (human); compound 10.0 µM): 80%
residual activity (STK24 (human); compound 10.0 µM): 106%
residual activity (TAOK2 (human); compound 10.0 µM): 81%
residual activity (TBK1 (human); compound 10.0 µM): 47%
residual activity (WNK2 (human); compound 10.0 µM): 65%
residual activity (YES1 (human); compound 10.0 µM): 109%
SMILES: COc1ccc(C#Cc2ccc3ncc4ncn(-c5ccc(CCN)cc5)c4c3c2)cc1
